According to patent publication US7998965B2, “Glutamate aggrecanase inhibitors” (Wyeth LLC, priority 2005, dated 2011):

Experiments:
[1] = molecular target: T1, purified recombinant human Aggrecanase-1 (rAgg1) (Homo sapiens, UniProt O75173); assay: In vitro fluorescence screen for Aggrecanase-1 inhibitors; type: biochemical; details: Table 2; read-out: Agg1 IC50
T1 sequence (O75173 213-837): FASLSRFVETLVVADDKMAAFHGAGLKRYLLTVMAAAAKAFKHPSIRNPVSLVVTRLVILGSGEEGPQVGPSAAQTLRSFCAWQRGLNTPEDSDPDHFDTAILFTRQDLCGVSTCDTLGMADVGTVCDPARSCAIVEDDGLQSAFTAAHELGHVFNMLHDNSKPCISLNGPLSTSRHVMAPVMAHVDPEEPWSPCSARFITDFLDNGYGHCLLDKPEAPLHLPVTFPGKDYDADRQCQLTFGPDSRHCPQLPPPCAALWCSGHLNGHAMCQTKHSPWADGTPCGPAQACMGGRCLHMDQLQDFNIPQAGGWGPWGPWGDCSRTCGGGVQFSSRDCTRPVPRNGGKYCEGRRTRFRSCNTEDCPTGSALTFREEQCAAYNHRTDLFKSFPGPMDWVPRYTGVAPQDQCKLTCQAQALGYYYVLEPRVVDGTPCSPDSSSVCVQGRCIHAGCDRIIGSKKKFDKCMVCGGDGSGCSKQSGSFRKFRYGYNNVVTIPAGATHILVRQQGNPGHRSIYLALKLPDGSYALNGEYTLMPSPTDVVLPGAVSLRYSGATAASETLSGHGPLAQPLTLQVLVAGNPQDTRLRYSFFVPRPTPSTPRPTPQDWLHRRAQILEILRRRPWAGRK

[2] = molecular target: T2, purified recombinant human Aggrecanase-2 (Ag2t-Phe628-Strep) (Homo sapiens, UniProt Q9UNA0); assay: In vitro fluorescence screen for Aggrecanase-2 inhibitors; type: biochemical; details: Table 2; read-out: Agg 2 IC50
T2 construct: the form used is denoted as Ag2t-Phe628-Strep (MW=41,737)
T2 sequence (Q9UNA0 262-628): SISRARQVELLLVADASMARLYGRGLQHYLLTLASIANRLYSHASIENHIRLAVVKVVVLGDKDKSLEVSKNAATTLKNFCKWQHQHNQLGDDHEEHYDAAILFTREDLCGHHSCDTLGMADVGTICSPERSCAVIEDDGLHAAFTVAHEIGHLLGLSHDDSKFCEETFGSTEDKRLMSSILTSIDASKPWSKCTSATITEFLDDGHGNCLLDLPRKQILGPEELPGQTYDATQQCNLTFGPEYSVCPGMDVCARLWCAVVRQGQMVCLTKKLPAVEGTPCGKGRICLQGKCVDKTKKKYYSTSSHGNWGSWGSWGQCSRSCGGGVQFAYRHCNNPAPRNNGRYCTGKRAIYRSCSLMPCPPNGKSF

| IC50 [1] | IC50 [2] | Compound |
| --- | --- | --- |
| > 17000 nM | > 200000 nM | COc1cc(CNC(=O)[C@H](CCC(=O)O)NC(=O)c2ccc(-c3cccc(C(=O)O)c3)cc2)cc(OC)c1OC [Example 17D, 4′-{[((1S)-3-carboxy-1-{[(3,4,5-trimethoxybenzyl)amino]carbonyl}propyl)amino]carbonyl}biphenyl-3-carboxylic acid] |
| < 30 nM | 1190 nM | CCOc1cccc(-c2ccc(C(=O)N[C@@H](CCC(=O)O)C(=O)NC(C)(C)Cc3ccc(F)cc3)cc2)c1 [Example 17DD, N^2-[(3′-ethoxybiphenyl-4-yl)carbonyl]-N-[2-(4-fluorophenyl)-1,1-dimethylethyl]-L-α-glutamine] |
| 251 nM | 1040 nM | CCc1ccc(-c2ccc(C(=O)N[C@@H](CCC(=O)O)C(=O)NCc3cc(OC)c(OC)c(OC)c3)cc2)cc1 [Example 17E, N^2-[(4′-ethylbiphenyl-4-yl)carbonyl]-N-(3,4,5-trimethoxybenzyl)-L-α-glutamine] |
| < 30 nM | 194 nM | COc1cccc(-c2ccc(C(=O)N[C@@H](CCC(=O)O)C(=O)NC(C)(C)Cc3ccc(F)cc3)cc2)c1 [Example 17EE, N-[2-(4-fluorophenyl)-1,1-dimethylethyl]-N^2-[(3′-methoxybiphenyl-4-yl)carbonyl]-L-α-glutamine] |
| 1700 nM | ~8300 nM | COc1ccc(-c2ccc(C(=O)N[C@@H](CCC(=O)O)C(=O)NCc3cc(OC)c(OC)c(OC)c3)cc2)cc1OC [Example 17F, N^2-[(3′,4′-dimethoxybiphenyl-4-yl)carbonyl]-N-(3,4,5-trimethoxybenzyl)-L-α-glutamine] |
| 690 nM | 13900 nM | CC(C)c1cccc(-c2ccc(C(=O)N[C@@H](CCC(=O)O)C(=O)NC(C)(C)Cc3ccc(F)cc3)cc2)c1 [Example 17FF, N-[2-(4-fluorophenyl)-1,1-dimethylethyl]-N^2-[(3′-isopropylbiphenyl-4-yl)carbonyl]-L-α-glutamine] |
| 1600 nM | 3000 to 8000 nM | COc1ccc(-c2ccc(C(=O)N[C@@H](CCC(=O)O)C(=O)NCc3cc(OC)c(OC)c(OC)c3)cc2)c(OC)c1 [Example 17G, N^2-[(2′,4′-dimethoxybiphenyl-4-yl)carbonyl]-N-(3,4,5-trimethoxybenzyl)-L-α-glutamine] |
| 34 nM | 113 nM | Cc1ccc(-c2ccc(C(=O)N[C@@H](CCC(=O)O)C(=O)NC(C)(C)Cc3ccc(F)cc3)cc2)cc1F [Example 17GG, N^2-[(3′-fluoro-4′-methylbiphenyl-4-yl)carbonyl]-N-[2-(4-fluorophenyl)-1,1-dimethylethyl]-L-α-glutamine] |
| 1000 nM | ~22000 nM | COc1cc(CNC(=O)[C@H](CCC(=O)O)NC(=O)c2ccc(-c3cc(OC)c(OC)c(OC)c3)cc2)cc(OC)c1OC [Example 17H, N-(3,4,5-trimethoxybenzyl)-N^2-[(3′,4′,5′-trimethoxybiphenyl-4-yl)carbonyl]-L-α-glutamine] |
| 2200 nM | 6320 nM | CC(C)Cc1ccc(-c2ccc(C(=O)N[C@@H](CCC(=O)O)C(=O)NC(C)(C)Cc3ccc(F)cc3)cc2)cc1 [Example 17HH, N-[2-(4-fluorophenyl)-1,1-dimethylethyl]-N^2-[(4′-isobutylbiphenyl-4-yl)carbonyl]-L-α-glutamine] |
| 1000 to 3000 nM | ~10000 nM | COc1cc(CNC(=O)[C@H](CCC(=O)O)NC(=O)c2ccc(-c3ccc(-c4ccccc4)cc3)cc2)cc(OC)c1OC [Example 17II, N^2-(1,1′:4′,1″-terphenyl-4-ylcarbonyl)-N-(3,4,5-trimethoxybenzyl)-L-α-glutamine] |
| ~5600 nM | ~30000 nM | COc1ccc(-c2ccc(C(=O)N[C@@H](CCC(=O)O)C(=O)NC(C)(C)Cc3ccccc3)cc2)cc1OC [Example 17J, N^2-[(3′,4′-dimethoxybiphenyl-4-yl)carbonyl]-N-(1,1-dimethyl-2-phenylethyl)-L-α-glutamine] |
| 2400 nM | 19500 nM | O=C(O)CC[C@H](NC(=O)c1ccc(-c2cccc(CO)c2)cc1)C(=O)NCc1ccccc1 [Example 17JJ, N-benzyl-N^2-{[3′-(hydroxymethyl)biphenyl-4-yl]carbonyl}-L-α-glutamine] |
| 1200 nM | ~3700 nM | CCOc1ccccc1-c1ccc(C(=O)N[C@@H](CCC(=O)O)C(=O)NC(C)(C)Cc2ccccc2)cc1 [Example 17K, N-(1,1-dimethyl-2-phenylethyl)-N^2-[(2′-ethoxybiphenyl-4-yl)carbonyl]-L-α-glutamine] |
| > 25000 nM | > 67000 nM | COc1cc(CNC(=O)[C@H](CCC(=O)O)NC(=O)c2ccc(-c3c(C)cc(C)cc3C)cc2)cc(OC)c1OC [Example 17KK, N-(3,4,5-trimethoxybenzyl)-N^2-[(2′,4′,6′-trimethylbiphenyl-4-yl)carbonyl]-L-α-glutamine] |
| 133 nM | 226 nM | Cc1ccc(-c2ccc(C(=O)N[C@@H](CCC(=O)O)C(=O)NC(C)(C)Cc3ccccc3)cc2)cc1F [Example 17L, N-(1,1-dimethyl-2-phenylethyl)-N^2-[(3′-fluoro-4′-methylbiphenyl-4-yl)carbonyl]-L-α-glutamine] |
| 87 nM | 1190 nM | CC(C)(Cc1ccccc1)NC(=O)[C@H](CCC(=O)O)NC(=O)c1ccc(-c2ccc(O)cc2)cc1 [Example 17LL, N-(1,1-dimethyl-2-phenylethyl)-N^2-[(4′-hydroxybiphenyl-4-yl)carbonyl]-L-α-glutamine] |
| ~310 nM | > 11000 nM | COc1ccc(-c2ccc(C(=O)NC(CCC(=O)O)C(=O)NCc3cc(OC)c(OC)c(OC)c3)cc2)cc1C (stereo not drawn) [Example 17M, 4-[(4′-Methoxy-3′-methyl-biphenyl-4-carbonyl)-amino]-4-(3,4,5-trimethoxy-benzylcarbamoyl)-butyric acid] |
| 46 nM | 2710 nM | CCOc1cccc(-c2ccc(C(=O)N[C@@H](CCC(=O)O)C(=O)NC(C)(C)Cc3ccccc3)cc2)c1 [Example 17MM, N-(1,1-dimethyl-2-phenylethyl)-N^2-[(3′-ethoxybiphenyl-4-yl)carbonyl]-L-α-glutamine] |
| 200 nM | 729 nM | Cc1cccc(CNC(=O)[C@H](CCC(=O)O)NC(=O)c2ccc(-c3ccc4c(c3)OCO4)cc2)c1 [Example 17NN, N^2-[4-(1,3-benzodioxol-5-yl)benzoyl]-N-(3-methylbenzyl)-L-α-glutamine] |
| 8500 nM | ~22000 nM | O=C(O)CC[C@H](NC(=O)c1ccc(-c2ccc(O)cc2)cc1)C(=O)NCC12CC3CC(CC(C3)C1)C2 [Example 17O, N-(1-adamantylmethyl)-N^2-[(4′-hydroxybiphenyl-4-yl)carbonyl]-L-α-glutamine] |
| < 30 nM | 1680 nM | CC(C)(Cc1ccc(F)cc1)NC(=O)[C@H](CCC(=O)O)NC(=O)c1ccc(-c2ccc(O)cc2)cc1 [Example 17OO, N-[2-(4-fluorophenyl)-1,1-dimethylethyl]-N^2-[(4′-hydroxybiphenyl-4-yl)carbonyl]-L-α-glutamine] |
| 126 nM | 58 nM | CC(C)(Cc1ccccc1)NC(=O)[C@H](CCC(=O)O)NC(=O)c1ccc(-c2ccc3c(c2)OCO3)cc1 [Example 17P, N^2-[4-(1,3-benzodioxol-5-yl)benzoyl]-N-(1,1-dimethyl-2-phenylethyl)-L-α-glutamine] |
| ~13000 nM | > 30000 nM | COc1ccc(-c2ccc(C(=O)N[C@@H](CCC(=O)O)C(=O)NC(C)(C)Cc3ccccc3)cc2)c(OC)c1 [Example 17Q, N^2-[(2′,4′-dimethoxybiphenyl-4-yl)carbonyl]-N-(1,1-dimethyl-2-phenylethyl)-L-α-glutamine] |
| > 25000 nM | ~22000 nM | O=C(O)CC[C@H](NC(=O)c1ccc(C#CC2CCC(O)CC2)cc1)C(=O)NCc1ccccc1 (stereo partly drawn) [Example 17QQ, N-benzyl-N^2-{4-[(4-hydroxycyclohexyl)ethynyl]benzoyl}-L-α-glutamine] |
| < 30 nM | 26 nM | COc1cc(CNC(=O)[C@H](CCC(=O)O)NC(=O)c2ccc(-c3cccc(O)c3)cc2)cc(OC)c1OC [Example 17RR, N^2-[(3′-hydroxybiphenyl-4-yl)carbonyl]-N-(3,4,5-trimethoxybenzyl)-L-α-glutamine] |
| 4600 nM | 10100 nM | CCC(C)c1ccc(-c2ccc(C(=O)N[C@@H](CCC(=O)O)C(=O)NC(C)(C)Cc3ccccc3)cc2)cc1 (stereo partly drawn) [Example 17S, N^2-[(4′-sec-butylbiphenyl-4-yl)carbonyl]-N-(1,1-dimethyl-2-phenylethyl)-L-α-glutamine] |
